Patent US12180228B2 (priority 2019, dated 2024)

Columns and labels:
[1] = D2O and CD3CN, addition of glutathione; minutes with base or days without
Protocol: The first study involved thiol-disulfide exchange of ETPs in organic solvents using a surrogate thiol, and then transitioned to more biologically informative aqueous conditions involving glutathione (Scheme 9).
To investigate this, aliquots of the reaction were diluted starting with epidisulfide (+)-42 (“from ETP”) in CDCl3 to analyze the composition versus an internal standard over a period of 100 h.

[2] = test system: five human cancer cell lines (HeLa, A549, MCF7, HCT116, DU-145); conditions: for cytotoxic activity relative to parent ETP (in words): same five cell lines
Protocol: Cells were grown in media supplemented with fetal bovine serum (FBS) and antibiotics (100 μg/mL penicillin and 100 U/mL streptomycin). Specifically, experiments were performed using the following cell lines and media compositions: HeLa (cervical adenocarcimona) and A549 (lung carcinoma) were grown in RPMI-1640+10% FBS; HCT-116 (colorectal carcinoma) was grown in DMEM+10% FBS; DU-145 (prostate carcinoma) and MCF7 (breast adenocarcinoma) were grown in EMEM+10% FBS. Cells were incubated at 37° C. in a 5% CO2, 95% humidity atmosphere.
(§1) Cells were plated at 250 cells/well into duplicate assay plates in 50 μL media into 384-well white, opaque, tissue-culture treated plates and allowed to adhere overnight at 37° C./5% CO2. Compounds were solubilized in DMSO as 1000× stocks and […] was pin-transferred to cells (V&P pin tool mounted on Tecan Freedom Evo MCA96). Compounds were tested in 10-pt, 2-fold dilution with concentrations tested between 1 nM-20 μM for most compounds, except where indicated. DMSO (32 wells of 384-wells) was used as vehicle control. After 72 hours of incubation at 37° C./5% CO2, 10 μL Cell Titer-Glo (Promega) was added to each well and plates were incubated at room temperature for 10 minutes before the luminescence was read on a Tecan M1000 plate reader. Cell Titer-Glo measures ATP levels of cells as a surrogate for cell viability. All compound-treated wells was normalized to the DMSO control averages and expressed as a % of DMSO viability. IC50 values were determined from the dose curves using Spotfire (Perkin Elmer).
To evaluate the model and functionalized ETP probes as anticancer agents, fifteen derivatives were tested in culture against a panel of five human cancer cell lines (Table 1).

[3] = test system: DU-145 (prostate carcinoma); conditions: for IC50: read-out: Cytotoxicity IC50, DU-145, 72 h of compound treatment, Cell Titer-Glo (ATP levels), error is standard deviation of the mean, n ≥ 2
Protocol: (§2) Cells were grown in media supplemented with fetal bovine serum (FBS) and antibiotics (100 μg/mL penicillin and 100 U/mL streptomycin).
as §1

[4] = test system: HCT116 (colorectal carcinoma); conditions: read-out: Cytotoxicity IC50, HCT116; 72 h of compound treatment, Cell Titer-Glo (ATP levels); error is standard deviation of the mean, n ≥ 2
Protocol: as §2, §1

[5] = test system: HeLa (cervical carcinoma); conditions: for IC50: read-out: Cytotoxicity IC50, HeLa, 72 h of compound treatment, Cell Titer-Glo (ATP levels), error is standard deviation of the mean, n ≥ 2
Protocol: as §2, §1

[6] = test system: MCF7 (breast adenocarcinoma); conditions: read-out: Cytotoxicity IC50, MCF7; 72 h of compound treatment, Cell Titer-Glo (ATP levels); error is standard deviation of the mean, n ≥ 2
Protocol: as §2, §1

[7] = test system: A549 (alveolar adenocarcinoma); conditions: for IC50: read-out: Cytotoxicity IC50, A549, 72 h of compound treatment, Cell Titer-Glo (ATP levels), error is standard deviation of the mean, n ≥ 2
Protocol: as §2, §1

[8] = Chemical stability of epidisulfides, in situ 1H NMR monitoring; assay type: physicochemical; conditions: triethylamine, 16 hours in deuteroacetonitrile
Protocol: In the absence of base, 98% of epidisulfide (+)-8 remained after 20 hours in deuterochloroform.
Monitoring in situ by ^1H NMR spectroscopy, 99% remaining starting material in the presence of triethylamine after 16 hours in deuteroacetonitrile was observed.

[9] = test system: Jurkat cell lines (acute T cell leukemia); assay: cells; assay type: cell-based; conditions: Homo sapiens, 72 hours, CellTiter-Glo
Protocol: (§3) Cells were grown in RPMI-1640+10% FBS+Pen/Strep and all are suspension cell lines. Each were plated at 250 cells per well in 50 μL of media in a 384 well plate and 50 nL of compounds was added via pin-tool (same as our usual procedure). Compounds were tested at 20 μM starting assay concentration in 20-pt, 2-fold dose in duplicate on the same assay plate. Cells were incubated with compound for 72 hours and viability was read out with CellTiter-Glo.

[10] = test system: Toledo cell lines (diffuse large cell lymphoma; non-Hodgkin's B cell lymphoma); assay: cells; assay type: cell-based; conditions: Homo sapiens, 72 hours, CellTiter-Glo
Protocol: as §3

[11] = test system: K-562 cell lines (chronic myelogenous leukemia (CML)); assay: cells; assay type: cell-based; conditions: Homo sapiens, K562; 72 hours, CellTiter-Glo
Protocol: as §3

| Compound | cytotoxic activity relative to parent ETP (in words) [2] | IC50 [3] [nM] | IC50 [4] [nM] | IC50 [5] [nM] | IC50 [6] [nM] | IC50 [7] [nM] | other results |
| --- | --- | --- | --- | --- | --- | --- | --- |
| COc1ccc([C@]23C[C@]4(SSC[C@H](NC(=O)CC[C@H](N)C(=O)O)C(=O)NCC(=O)O)C(=O)N(C)[C@@](C)(SSC[C@H](NC(=O)CC[C@H](N)C(=O)O)C(=O)NCC(=O)O)C(=O)N4[C@H]2N(S(=O)(=O)c2ccccc2)c2ccccc23)cc1 [Compound 46, Bis(L-glutathione)disulfide] | significantly less active | 580 ± 216 | 1100 ± 540 | 508 ± 75 | 500 ± 152 | 910 ± 324 | reversion of bisdisulfide to ETP (+)-42 (in words) [1]: quantitative reversion |
| COc1ccc([C@]23C[C@]4(SSCc5ccc(F)cc5)C(=O)N(C)[C@@](C)(SSCc5ccc(F)cc5)C(=O)N4[C@H]2N(S(=O)(=O)c2ccccc2)c2ccccc23)cc1 [(+)-45b] | approximately the same activities |  |  |  |  |  |  |
| COc1ccc([C@]23C[C@]4(SSCc5ccc(F)cc5)C(=O)N(C)[C@@H](SSCc5ccc(F)cc5)C(=O)N4[C@H]2N(S(=O)(=O)c2ccccc2)c2ccccc23)cc1 [(−)-45a] | approximately the same activities |  |  |  |  |  |  |
| COc1ccc([C@]23C[C@@]45SS[C@@](C)(C(=O)N4[C@H]2N(S(=O)(=O)c2ccccc2)c2ccccc23)N(C)C5=O)cc1 [(+)-42, Epidithiodiketopiperazine] |  | 36 ± 43 | 374 ± 83 | 32 ± 37 | 81 ± 64 | 92 ± 87 | remaining starting material [8]: 99%; IC50 ([2]; read-out: activity (IC50 range) against the five cell lines, range over HeLa, A549, MCF7, HCT116, DU-145): 32 to 374 nM |
| CN1C(=O)[C@@]23C[C@]4(c5ccc(OCCCN=[N+]=[N-])cc5)c5ccccc5N(S(=O)(=O)c5ccccc5)[C@@H]4N2C(=O)[C@]1(C)SS3 [(+)-9d, Epidithiodiketopiperazine Azide] |  |  |  |  |  |  | IC50 [9]: 419 nM; IC50 [10]: 1810 nM; IC50 [11]: 1280 nM; fold decrease in activity compared to model ETP (+)-42, DU-145 [3]: 8.6 fold; fold decrease in activity compared to model ETP (+)-42, HeLa [5]: 4.3 fold; fold decrease in activity compared to model ETP (+)-42, A549 [7]: 2.7 fold |
